Article PMC10718593, “Rational design, synthesis, molecular modeling, biological activity, and mechanism of action of polypharmacological norfloxacin hydroxamic acid derivatives” (RSC Medicinal Chemistry, 2023)
Values after ≈ are worked out from the molar mass of the structure shown.

Tested on: E. coli
Assay: microbe, parasite or virus in culture
Set-up: Minimal inhibitory concentration, bacterial growth inhibition
Settings: Escherichia coli
Protocol: Minimal inhibitory concentrations (MICs) were determined against a panel of test strains comprising Gram-negative, Gram-positive, and mycobacteria, including a fluoroquinolone-resistant, clinical isolate of E. coli and an MRSA strain that is also resistant to norfloxacin and ciprofloxacin (Table 1).

| Compound | MIC [µM] |
| --- | --- |
| CCn1cc(C(=O)NO)c(=O)c2cc(F)c(N3CCN(C)CC3)cc21 [11a] | 0.18 (≈ 0.0627 µg/mL) |
| CCCCCN1CCN(c2cc3c(cc2F)c(=O)c(C(=O)NO)cn3CC)CC1 [11d, 1-ethyl-6-fluoro-1,4-dihydro-N-hydroxy-7-(4-pentylpiperazin-1-yl)-4-oxoquinoline-3-carboxamide] | 0.3 (≈ 0.121 µg/mL) |
| CCn1cc(C(=O)NO)c(=O)c2cc(F)c(N3CCN(Cc4ccc(Cl)cc4)CC3)cc21 [11f] | 1.08 (≈ 0.496 µg/mL) |
| CCn1cc(C(=O)O)c(=O)c2cc(F)c(N3CCN(CN4CCCCC4)CC3)cc21 [19a, 1-ethyl-6-fluoro-1,4-dihydro-4-oxo-7-(4-((piperidin-1-yl)methyl)piperazin-1-yl)quinoline-3-carboxylic acid] | 0.3 (≈ 0.125 µg/mL) |
| CCn1cc(C(=O)NO)c(=O)c2cc(F)c(N3CCN(CN4CCOCC4)CC3)cc21 [20b] | 0.28 (≈ 0.121 µg/mL) |
| CCn1cc(C(=O)NO)c(=O)c2cc(F)c(N3CCN(CN4C(=O)CCC4=O)CC3)cc21 [23a, 1-ethyl-6-fluoro-1,4-dihydro-N-hydroxy-4-oxo-7-(4-((2,5-dioxopyrrolidin-1-yl)methyl)piperazin-1-yl)quinoline-3-carboxamide] | 0.56 (≈ 0.249 µg/mL) |
| CCn1cc(C(=O)O)c(=O)c2cc(F)c(N3CCN(CNc4ccc([N+](=O)[O-])cc4)CC3)cc21 [compound 25, 25] | 0.266 (≈ 0.125 µg/mL) |
